Earlier results in patent publication US9693945B1, “Method of solubilizing a composition of a cleaned photochromic dye suitable for use on human skin” (priority 2016, dated 2017).

System: Salmonella typhimurium
Settings: background on compounds formerly used in commercial products

Compound | Ames test outcome (identified as potential carcinogen)
NC(=O)/C(=C\c1ccc([N+](=O)[O-])o1)c1ccco1 [furylfuramide] | positive
O=P(OCC(Br)CBr)(OCC(Br)CBr)OCC(Br)CBr (centres unmarked) [tris (2,3-dibromopropyl) phosphate] | positive
